Read-outs that look alike come from different tables or passages of the source.
Assays:
CBP/p300 [1] = biological target: CBP/p300; set-up: method as in ref 10 (suppl.); details: ref 10 (suppl.); read-out: TR-FRET (KD (nM) column); cited from earlier work
CBP/p300 [2] = biological target: CBP/p300; set-up: method as in ref 10 (suppl.); details: ref 10 (suppl.); read-out: BRET (KD (nM) column); cited from earlier work
CBP/p300 over BRD4 = details: cited from earlier work
EP300 = EP300 (Homo sapiens, UniProt Q09472); assay: Histone acetyltransferase (HAT) activity assay; format: biochemical;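 further: selectivity screen of bromodomain probe compounds against histone acetyltransferases, with enzyme activity given in percent for compounds tested at 1 and 10 µM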
HAT1 = biological target: T1, HAT1 (Homo sapiens, UniProt O14929); assay: Histone acetyltransferase (HAT) activity assay; format: biochemical;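 further: HAT selectivity screen of BRD probe compounds, enzyme activity in % measured with compound at 1 µM and 10 µM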
T1 sequence (O14929 1-419): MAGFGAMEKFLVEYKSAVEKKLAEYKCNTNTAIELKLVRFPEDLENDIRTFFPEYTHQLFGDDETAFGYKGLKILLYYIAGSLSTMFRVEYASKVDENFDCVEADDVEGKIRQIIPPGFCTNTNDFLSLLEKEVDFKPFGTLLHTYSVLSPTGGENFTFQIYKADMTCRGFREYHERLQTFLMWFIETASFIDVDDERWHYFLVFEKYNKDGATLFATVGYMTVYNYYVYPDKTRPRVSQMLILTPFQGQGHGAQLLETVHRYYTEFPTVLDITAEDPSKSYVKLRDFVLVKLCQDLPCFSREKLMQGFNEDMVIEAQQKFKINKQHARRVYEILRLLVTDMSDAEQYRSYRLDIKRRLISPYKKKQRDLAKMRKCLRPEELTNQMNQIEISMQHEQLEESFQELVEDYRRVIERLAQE

MYST1 = biological target: T2, MYST1 (Homo sapiens, UniProt Q9H7Z6); assay: Histone acetyltransferase (HAT) activity assay; format: biochemical;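 further: selectivity screen across a panel of histone acetyltransferases, with compounds tested at 1 and 10 µM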
T2 sequence (Q9H7Z6 1-458): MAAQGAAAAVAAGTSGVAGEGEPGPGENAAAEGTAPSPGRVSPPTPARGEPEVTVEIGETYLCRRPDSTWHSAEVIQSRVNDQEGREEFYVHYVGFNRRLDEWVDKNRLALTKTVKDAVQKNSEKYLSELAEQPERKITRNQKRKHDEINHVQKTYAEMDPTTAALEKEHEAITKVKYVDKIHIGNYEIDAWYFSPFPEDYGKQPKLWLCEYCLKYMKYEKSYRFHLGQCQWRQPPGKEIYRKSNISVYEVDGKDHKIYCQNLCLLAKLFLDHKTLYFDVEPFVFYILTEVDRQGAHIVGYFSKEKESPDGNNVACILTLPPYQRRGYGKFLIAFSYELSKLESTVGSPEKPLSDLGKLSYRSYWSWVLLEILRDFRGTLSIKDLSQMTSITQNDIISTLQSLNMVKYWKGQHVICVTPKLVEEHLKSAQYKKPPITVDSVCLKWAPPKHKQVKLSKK

MYST3 = MYST3 (Homo sapiens, UniProt Q92794); assay: Histone acetyltransferase (HAT) activity assay; format: biochemical;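 further: selectivity screen of bromodomain probe compounds across a panel of histone acetyltransferases, read out as enzyme activity in %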
MYST3, sequence (Q92794 whole entry, species assumed): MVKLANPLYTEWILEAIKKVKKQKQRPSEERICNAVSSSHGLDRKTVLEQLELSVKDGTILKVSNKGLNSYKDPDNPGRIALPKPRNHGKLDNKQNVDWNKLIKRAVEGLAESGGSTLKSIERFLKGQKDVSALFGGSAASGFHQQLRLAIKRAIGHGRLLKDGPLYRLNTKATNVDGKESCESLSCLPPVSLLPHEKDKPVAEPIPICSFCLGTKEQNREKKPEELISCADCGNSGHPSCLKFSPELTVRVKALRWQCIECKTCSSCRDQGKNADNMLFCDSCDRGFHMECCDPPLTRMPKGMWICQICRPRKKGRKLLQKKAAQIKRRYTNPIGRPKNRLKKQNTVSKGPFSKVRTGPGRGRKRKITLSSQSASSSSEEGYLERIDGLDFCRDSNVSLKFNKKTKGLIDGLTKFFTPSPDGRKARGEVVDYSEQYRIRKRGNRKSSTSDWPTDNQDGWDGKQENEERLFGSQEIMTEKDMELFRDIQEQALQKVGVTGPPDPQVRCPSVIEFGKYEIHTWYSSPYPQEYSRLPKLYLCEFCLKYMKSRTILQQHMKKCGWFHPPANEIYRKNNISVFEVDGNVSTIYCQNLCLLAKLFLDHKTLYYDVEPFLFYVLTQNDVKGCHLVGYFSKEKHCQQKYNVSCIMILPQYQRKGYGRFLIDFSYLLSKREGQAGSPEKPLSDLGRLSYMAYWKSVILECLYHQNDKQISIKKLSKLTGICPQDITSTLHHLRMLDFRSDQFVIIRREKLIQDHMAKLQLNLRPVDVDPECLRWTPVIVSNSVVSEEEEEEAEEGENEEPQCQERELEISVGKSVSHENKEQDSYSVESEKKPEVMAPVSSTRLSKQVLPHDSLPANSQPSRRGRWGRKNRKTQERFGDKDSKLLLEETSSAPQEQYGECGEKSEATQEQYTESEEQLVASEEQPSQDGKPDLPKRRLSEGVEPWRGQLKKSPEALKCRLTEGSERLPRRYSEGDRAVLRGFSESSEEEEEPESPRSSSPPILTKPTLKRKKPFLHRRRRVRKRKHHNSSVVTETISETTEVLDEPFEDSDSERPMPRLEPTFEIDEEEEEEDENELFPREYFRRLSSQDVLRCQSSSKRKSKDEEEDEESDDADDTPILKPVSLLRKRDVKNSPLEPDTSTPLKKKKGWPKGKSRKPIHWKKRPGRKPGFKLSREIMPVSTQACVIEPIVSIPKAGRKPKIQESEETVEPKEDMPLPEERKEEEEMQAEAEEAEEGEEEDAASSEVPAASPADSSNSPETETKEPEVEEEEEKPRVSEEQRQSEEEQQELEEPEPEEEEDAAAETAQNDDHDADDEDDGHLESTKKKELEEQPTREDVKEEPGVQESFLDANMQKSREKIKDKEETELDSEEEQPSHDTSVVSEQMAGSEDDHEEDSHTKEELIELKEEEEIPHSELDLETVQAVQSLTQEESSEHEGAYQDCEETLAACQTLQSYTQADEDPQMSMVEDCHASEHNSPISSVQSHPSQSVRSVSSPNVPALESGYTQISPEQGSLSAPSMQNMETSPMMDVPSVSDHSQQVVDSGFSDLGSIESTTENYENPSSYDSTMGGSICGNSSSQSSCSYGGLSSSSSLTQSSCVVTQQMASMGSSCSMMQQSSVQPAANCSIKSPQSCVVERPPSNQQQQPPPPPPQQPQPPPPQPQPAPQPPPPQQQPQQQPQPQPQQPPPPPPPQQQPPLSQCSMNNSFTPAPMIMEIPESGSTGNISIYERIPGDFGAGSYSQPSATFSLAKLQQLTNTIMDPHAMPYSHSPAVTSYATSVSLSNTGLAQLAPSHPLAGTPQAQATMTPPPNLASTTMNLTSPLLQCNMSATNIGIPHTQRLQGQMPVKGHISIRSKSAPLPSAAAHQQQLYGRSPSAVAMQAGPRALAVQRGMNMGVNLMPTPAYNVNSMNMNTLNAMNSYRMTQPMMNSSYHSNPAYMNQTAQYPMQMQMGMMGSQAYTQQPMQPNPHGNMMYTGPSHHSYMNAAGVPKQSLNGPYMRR

GCN5L2 = GCN5L2 (Homo sapiens, UniProt Q92830); assay: Histone acetyltransferase (HAT) activity assay; format: biochemical;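 further: selectivity screen of BRD probe compounds across a panel of histone acetyltransferases, HAT activity in % with compound at 1 or 10 µM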
GCN5L2, sequence (Q92830 whole entry, species assumed): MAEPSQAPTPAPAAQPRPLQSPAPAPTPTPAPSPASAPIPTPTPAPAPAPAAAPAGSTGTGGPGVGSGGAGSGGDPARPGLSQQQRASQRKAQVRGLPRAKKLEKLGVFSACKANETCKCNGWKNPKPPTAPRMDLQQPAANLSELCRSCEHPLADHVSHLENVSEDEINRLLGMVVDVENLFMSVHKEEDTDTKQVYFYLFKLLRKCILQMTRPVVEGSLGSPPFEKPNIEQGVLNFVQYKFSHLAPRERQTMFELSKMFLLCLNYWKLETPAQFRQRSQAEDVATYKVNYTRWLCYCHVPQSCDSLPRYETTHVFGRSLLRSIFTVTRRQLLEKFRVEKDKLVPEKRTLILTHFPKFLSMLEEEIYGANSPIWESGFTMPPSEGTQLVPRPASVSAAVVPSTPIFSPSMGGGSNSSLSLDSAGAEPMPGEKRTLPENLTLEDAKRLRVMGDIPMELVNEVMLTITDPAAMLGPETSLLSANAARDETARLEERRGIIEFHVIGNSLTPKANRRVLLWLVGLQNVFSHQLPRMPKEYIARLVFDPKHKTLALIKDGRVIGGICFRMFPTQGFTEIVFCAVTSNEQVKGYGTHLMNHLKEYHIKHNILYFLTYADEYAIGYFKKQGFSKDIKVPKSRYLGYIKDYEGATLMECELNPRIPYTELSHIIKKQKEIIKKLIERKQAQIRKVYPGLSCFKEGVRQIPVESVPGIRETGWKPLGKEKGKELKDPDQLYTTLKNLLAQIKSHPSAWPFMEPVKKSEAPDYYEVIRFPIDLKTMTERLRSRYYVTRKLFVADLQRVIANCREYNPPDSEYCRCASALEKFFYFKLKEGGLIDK

three TNBC lines = assay: Combinatorial screen of BRD inhibitors with or without BAY-876 (confluency); format: cell-based, human; details: 3 μM probe + 3 μM BAY-876
Procedure: Fig. 6 BRD inhibitors leverage metabolic adaptations induced by glucose transporter I (GLUT1) inhibition in TNBC. a BRD inhibitor screening across ten TNBC cell lines. Cells were treated with indicated BRD inhibitors at 3 μM for 7 days. Confluency was measured using an IncuCyte ZOOM live cell imaging device. Data shown are mean ± s.d. of n = 4 independent cell culture grown and treated cells. A two-sided Student’s t test was used to derive the p-values. b SLC2A1 gene expression in the The Cancer Genome Atlas (TCGA) breast datasets. The cohorts were divided into TNBCs (red) and non-TNBCs (blue) according to PAM50 classification. Gene expression is reported as median-centered expression log2 values. The number of patients (n) per group is indicated. P-values were determined using a Wilcoxon's rank-sum test. c Glucose uptake in MDA-MB-436 cells in response to BAY-876 treatment relative to vehicle. MDA-MB-436 cells were treated with dimethyl sulfoxide (DMSO) or 3 µM BAY-876 for 5 days. Graph indicates mean, error bars denote s.d. from three independent assays and p-value was computed using the Benjamini-Hochberg t test; ***p < 0.001. d Effects of BAY-876 treatment on the intracellular acetyl-CoA level. Graph indicates mean, error bars denote s.d. from three independent assays and p-value was computed using the Benjamini-Hochberg t test; ***p < 0.001. e Effects of BAY-876 treatment on intracellular NAD^+/NADH level. Graph indicates the mean, error bars denote s.d. from three independent assays and p-value computed using the Benjamini-Hochberg t test; **p < 0.01. f Immunoblot analysis of H3 and H4 acetylation in MDA-MB-436 cells before and after BAY-876 treatment. P-value computed using the Benjamini-Hochberg t test; ***p < 0.001. g Cell growth effects of BAY-876 treatment on three representative cell lines. n.s. not significant. h Combinatorial screening of BRD inhibitors with or without 3 μM BAY-876 across ten TNBC cell lines. Cell confluency was obtained from the endpoint Incucyte scanning. (Left) Heatmap of the combinatorial screening results; (Right) Cell confluency after treatment with three potential BRDi candidates at 3 μM in the presence or absence of 3 μM BAY-876 in three representative cell lines. Graph indicates mean, error bars denote s.d. from three independent assays and p-values were computed using the Benjamini-Hochberg t test; **p < 0.01; ***p < 0.001. Raw data images are available in Supplementary Fig. 4
TNBC cell lines were seeded in sterile, transparent 384-well plates at 500 cells per well in 50 µl media. Chemical probes were delivered in dimethyl sulfoxide (DMSO). Cell confluency at 7 days was evaluated using an Incucyte ZOOM live cell imaging device (Essen Bioscence) and analyzed with the Incucyte ZOOM (2016A) software based on phase contrast image.

| Structure (SMILES) | Kd (CBP/p300 [1]) [nM] | Kd (CBP/p300 [2]) [nM] | selectivity over BRD4 for CBP/p300 (CBP/p300 over BRD4) [fold] | HATs Activity (%) (EP300; 1µM) | HATs Activity (%) (EP300; 10µM) | HATs Activity (%) (HAT1; 1µM) | HATs Activity (%) (HAT1; 10µM) | HATs Activity (%) (MYST1; 1µM) | HATs Activity (%) (MYST1; 10µM) | HATs Activity (%) (MYST3; 1µM) | HATs Activity (%) (MYST3; 10µM) | HATs Activity (%) (GCN5L2; 1µM) | HATs Activity (%) (GCN5L2; 10µM) | combination effect with BAY-876 across the three cell lines (three TNBC lines) | viability in combination with BAY-876 (three TNBC lines) |
| --- | --- | --- | --- | --- | --- | --- | --- | --- | --- | --- | --- | --- | --- | --- | --- |
| CNC(=O)N1CCc2c(c(N3CCCc4cc(-c5cnn(C)c5)c(C(F)F)cc43)nn2C2CCOCC2)C1 [GNE-781] | 0.94 | 6.2 | 650 |  |  |  |  |  |  |  |  |  |  |  |  |
| CCn1cc(-c2cccc(C(F)(F)F)c2)c2sc(C(=N)NC3CCS(=O)(=O)CC3)cc2c1=O [I-BRD9] |  |  |  | 96 | 99 | 103 | 101 | 104 | 104 | 101 | 99 | 104 | 102 | efficacy in only one of the three tested TNBC lines | significant decrease in viability |

From article PMC6478789, “A chemical toolbox for the study of bromodomains and epigenetic signaling” (Nature Communications, 2019)
